Laboratory results: ChEMBL document CHEMBL4804281, “STK4 inhibitors for treatment of hematologic malignancies” (2020)

Key:
[1] = biological target: T1, Mitogen-activated protein kinase 13 (Homo sapiens) (UniProt O15264); test: Inhibition of P38delta in human NCI-H929 cells at 10 uM by mass spectroscopic analysis relative to control; format: cell-based
T1 sequence (whole entry): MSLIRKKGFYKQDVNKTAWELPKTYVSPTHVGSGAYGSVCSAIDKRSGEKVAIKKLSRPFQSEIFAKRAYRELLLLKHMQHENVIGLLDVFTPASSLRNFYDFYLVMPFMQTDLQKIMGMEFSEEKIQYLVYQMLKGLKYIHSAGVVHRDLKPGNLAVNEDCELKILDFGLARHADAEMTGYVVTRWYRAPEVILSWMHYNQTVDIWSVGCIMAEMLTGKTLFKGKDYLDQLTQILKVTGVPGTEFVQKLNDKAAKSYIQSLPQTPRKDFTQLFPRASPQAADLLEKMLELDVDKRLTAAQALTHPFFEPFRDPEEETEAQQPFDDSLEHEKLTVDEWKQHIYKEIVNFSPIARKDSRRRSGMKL

[2] = biological target: Serine/threonine-protein kinase WNK1 (Homo sapiens) (UniProt Q9H4A3); test: Inhibition of WNK1 in human NCI-H929 cells at 10 uM by mass spectroscopic analysis relative to control; format: cell-based
[3] = biological target: MAP kinase-activated protein kinase 2 (Homo sapiens) (UniProt P49137); test: Inhibition of MAPKAPK2 in human NCI-H929 cells at 10 uM by mass spectroscopic analysis relative to control; format: cell-based
[4] = biological target: Phosphatidylinositol 4-kinase alpha (Homo sapiens) (UniProt P42356); test: Inhibition of PI4KA in human NCI-H929 cells at 10 uM by mass spectroscopic analysis relative to control; format: cell-based
[5] = biological target: Putative phosphatidylinositol 4-kinase alpha-like protein P2 (Homo sapiens) (UniProt A4QPH2); test: Inhibition of PI4KAP2 in human NCI-H929 cells at 10 uM by mass spectroscopic analysis relative to control; format: cell-based
[6] = biological target: T2, Serine/threonine-protein kinase 4 (Homo sapiens) (UniProt Q13043); test: Inhibition of STK4 (unknown origin) using fluorescein-labelled Ser/Thr-07 peptide as substrate incubated for 1 hr in presence of ATP at Km concentration by Z-LYTE assay
T2 sequence (whole entry): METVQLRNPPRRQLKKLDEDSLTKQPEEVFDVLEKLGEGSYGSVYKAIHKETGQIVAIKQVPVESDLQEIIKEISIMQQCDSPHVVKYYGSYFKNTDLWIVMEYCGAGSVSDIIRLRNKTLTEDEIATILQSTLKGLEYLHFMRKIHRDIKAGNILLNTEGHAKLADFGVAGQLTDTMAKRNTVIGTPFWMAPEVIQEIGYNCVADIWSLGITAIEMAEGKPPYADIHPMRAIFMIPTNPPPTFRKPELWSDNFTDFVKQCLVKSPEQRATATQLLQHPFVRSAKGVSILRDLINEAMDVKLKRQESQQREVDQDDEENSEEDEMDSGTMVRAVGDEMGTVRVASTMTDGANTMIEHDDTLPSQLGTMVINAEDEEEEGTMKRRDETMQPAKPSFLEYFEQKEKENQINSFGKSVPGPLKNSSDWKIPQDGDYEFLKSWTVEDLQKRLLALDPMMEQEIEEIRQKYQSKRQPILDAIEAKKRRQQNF

[7] = biological target: Calcium/calmodulin-dependent protein kinase type II subunit beta (Homo sapiens) (UniProt Q13554); test: Inhibition of CAMK2B in human NCI-H929 cells at 10 uM by mass spectroscopic analysis relative to control; format: cell-based
[8] = biological target: MAP kinase-activated protein kinase 3 (Homo sapiens) (UniProt Q16644); test: Inhibition of MAPKAPK3 in human NCI-H929 cells at 10 uM by mass spectroscopic analysis relative to control; format: cell-based
[9] = biological target: Serine/threonine-protein kinase 24 (Homo sapiens) (UniProt Q9Y6E0); test: Inhibition of STK24 (unknown origin) using fluorescein-labelled Ser/Thr-07 peptide as substrate incubated for 1 hr in presence of ATP at Km concentration by Z-LYTE assay
[10] = biological target: TRAF2 and NCK-interacting protein kinase (Homo sapiens) (UniProt Q9UKE5); test: Inhibition of TNIK in human NCI-H929 cells at 10 uM by mass spectroscopic analysis relative to control; format: cell-based
[11] = biological target: Serine/threonine-protein kinase Nek6 (Homo sapiens) (UniProt Q9HC98); test: Inhibition of NEK6 in human NCI-H929 cells at 10 uM by mass spectroscopic analysis relative to control; format: cell-based
[12] = biological target: Calcium/calmodulin-dependent protein kinase type II subunit alpha (Homo sapiens) (UniProt Q9UQM7); test: Inhibition of CAMK2A in human NCI-H929 cells at 10 uM by mass spectroscopic analysis relative to control; format: cell-based
[13] = biological target: Tyrosine-protein kinase Yes (Homo sapiens) (UniProt P07947); test: Inhibition of YES in human NCI-H929 cells at 10 uM by mass spectroscopic analysis relative to control; format: cell-based
[14] = biological target: Proto-oncogene tyrosine-protein kinase Src (Homo sapiens) (UniProt P12931); test: Inhibition of SRC in human NCI-H929 cells at 10 uM by mass spectroscopic analysis relative to control; format: cell-based
[15] = biological target: Mitogen-activated protein kinase 9 (Homo sapiens) (UniProt P45984); test: Inhibition of JNK2 in human NCI-H929 cells at 10 uM by mass spectroscopic analysis relative to control; format: cell-based
[16] = biological target: Serine/threonine-protein kinase WNK2 (Homo sapiens) (UniProt Q9Y3S1); test: Inhibition of WNK2 in human NCI-H929 cells at 10 uM by mass spectroscopic analysis relative to control; format: cell-based
[17] = biological target: T3, Mitogen-activated protein kinase 12 (Homo sapiens) (UniProt P53778); test: Inhibition of P38gamma in human NCI-H929 cells at 10 uM by mass spectroscopic analysis relative to control; format: cell-based
T3 sequence (whole entry): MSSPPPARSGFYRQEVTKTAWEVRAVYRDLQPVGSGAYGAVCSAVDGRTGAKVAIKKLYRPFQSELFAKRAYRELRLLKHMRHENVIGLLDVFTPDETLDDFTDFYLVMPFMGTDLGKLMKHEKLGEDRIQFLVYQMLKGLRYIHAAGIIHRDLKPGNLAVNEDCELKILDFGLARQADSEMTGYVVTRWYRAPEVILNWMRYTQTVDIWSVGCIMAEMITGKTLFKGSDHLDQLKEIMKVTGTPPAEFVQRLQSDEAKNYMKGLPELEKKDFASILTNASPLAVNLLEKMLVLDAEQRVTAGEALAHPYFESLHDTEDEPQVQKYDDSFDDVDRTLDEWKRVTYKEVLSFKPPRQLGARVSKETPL

Chain of Putative phosphatidylinositol 4-kinase alpha-like protein P2 (Homo sapiens) (A4QPH2 whole entry): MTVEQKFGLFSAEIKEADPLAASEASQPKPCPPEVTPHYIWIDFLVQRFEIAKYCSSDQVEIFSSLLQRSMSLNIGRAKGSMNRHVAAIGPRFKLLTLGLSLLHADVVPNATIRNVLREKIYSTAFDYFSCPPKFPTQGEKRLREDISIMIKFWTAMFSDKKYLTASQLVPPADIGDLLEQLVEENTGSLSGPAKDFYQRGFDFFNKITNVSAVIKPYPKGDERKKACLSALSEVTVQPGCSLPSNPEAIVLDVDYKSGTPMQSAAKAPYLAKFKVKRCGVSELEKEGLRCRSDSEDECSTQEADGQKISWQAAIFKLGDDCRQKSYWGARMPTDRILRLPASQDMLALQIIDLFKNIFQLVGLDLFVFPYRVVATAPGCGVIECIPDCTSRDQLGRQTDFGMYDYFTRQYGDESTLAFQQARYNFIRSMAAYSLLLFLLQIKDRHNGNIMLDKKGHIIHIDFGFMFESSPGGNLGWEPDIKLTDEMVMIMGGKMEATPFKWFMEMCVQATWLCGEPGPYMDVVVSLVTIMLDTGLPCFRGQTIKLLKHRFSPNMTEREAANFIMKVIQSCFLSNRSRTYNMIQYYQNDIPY
Chain of Serine/threonine-protein kinase WNK1 (Homo sapiens) (Q9H4A3 whole entry, looked up): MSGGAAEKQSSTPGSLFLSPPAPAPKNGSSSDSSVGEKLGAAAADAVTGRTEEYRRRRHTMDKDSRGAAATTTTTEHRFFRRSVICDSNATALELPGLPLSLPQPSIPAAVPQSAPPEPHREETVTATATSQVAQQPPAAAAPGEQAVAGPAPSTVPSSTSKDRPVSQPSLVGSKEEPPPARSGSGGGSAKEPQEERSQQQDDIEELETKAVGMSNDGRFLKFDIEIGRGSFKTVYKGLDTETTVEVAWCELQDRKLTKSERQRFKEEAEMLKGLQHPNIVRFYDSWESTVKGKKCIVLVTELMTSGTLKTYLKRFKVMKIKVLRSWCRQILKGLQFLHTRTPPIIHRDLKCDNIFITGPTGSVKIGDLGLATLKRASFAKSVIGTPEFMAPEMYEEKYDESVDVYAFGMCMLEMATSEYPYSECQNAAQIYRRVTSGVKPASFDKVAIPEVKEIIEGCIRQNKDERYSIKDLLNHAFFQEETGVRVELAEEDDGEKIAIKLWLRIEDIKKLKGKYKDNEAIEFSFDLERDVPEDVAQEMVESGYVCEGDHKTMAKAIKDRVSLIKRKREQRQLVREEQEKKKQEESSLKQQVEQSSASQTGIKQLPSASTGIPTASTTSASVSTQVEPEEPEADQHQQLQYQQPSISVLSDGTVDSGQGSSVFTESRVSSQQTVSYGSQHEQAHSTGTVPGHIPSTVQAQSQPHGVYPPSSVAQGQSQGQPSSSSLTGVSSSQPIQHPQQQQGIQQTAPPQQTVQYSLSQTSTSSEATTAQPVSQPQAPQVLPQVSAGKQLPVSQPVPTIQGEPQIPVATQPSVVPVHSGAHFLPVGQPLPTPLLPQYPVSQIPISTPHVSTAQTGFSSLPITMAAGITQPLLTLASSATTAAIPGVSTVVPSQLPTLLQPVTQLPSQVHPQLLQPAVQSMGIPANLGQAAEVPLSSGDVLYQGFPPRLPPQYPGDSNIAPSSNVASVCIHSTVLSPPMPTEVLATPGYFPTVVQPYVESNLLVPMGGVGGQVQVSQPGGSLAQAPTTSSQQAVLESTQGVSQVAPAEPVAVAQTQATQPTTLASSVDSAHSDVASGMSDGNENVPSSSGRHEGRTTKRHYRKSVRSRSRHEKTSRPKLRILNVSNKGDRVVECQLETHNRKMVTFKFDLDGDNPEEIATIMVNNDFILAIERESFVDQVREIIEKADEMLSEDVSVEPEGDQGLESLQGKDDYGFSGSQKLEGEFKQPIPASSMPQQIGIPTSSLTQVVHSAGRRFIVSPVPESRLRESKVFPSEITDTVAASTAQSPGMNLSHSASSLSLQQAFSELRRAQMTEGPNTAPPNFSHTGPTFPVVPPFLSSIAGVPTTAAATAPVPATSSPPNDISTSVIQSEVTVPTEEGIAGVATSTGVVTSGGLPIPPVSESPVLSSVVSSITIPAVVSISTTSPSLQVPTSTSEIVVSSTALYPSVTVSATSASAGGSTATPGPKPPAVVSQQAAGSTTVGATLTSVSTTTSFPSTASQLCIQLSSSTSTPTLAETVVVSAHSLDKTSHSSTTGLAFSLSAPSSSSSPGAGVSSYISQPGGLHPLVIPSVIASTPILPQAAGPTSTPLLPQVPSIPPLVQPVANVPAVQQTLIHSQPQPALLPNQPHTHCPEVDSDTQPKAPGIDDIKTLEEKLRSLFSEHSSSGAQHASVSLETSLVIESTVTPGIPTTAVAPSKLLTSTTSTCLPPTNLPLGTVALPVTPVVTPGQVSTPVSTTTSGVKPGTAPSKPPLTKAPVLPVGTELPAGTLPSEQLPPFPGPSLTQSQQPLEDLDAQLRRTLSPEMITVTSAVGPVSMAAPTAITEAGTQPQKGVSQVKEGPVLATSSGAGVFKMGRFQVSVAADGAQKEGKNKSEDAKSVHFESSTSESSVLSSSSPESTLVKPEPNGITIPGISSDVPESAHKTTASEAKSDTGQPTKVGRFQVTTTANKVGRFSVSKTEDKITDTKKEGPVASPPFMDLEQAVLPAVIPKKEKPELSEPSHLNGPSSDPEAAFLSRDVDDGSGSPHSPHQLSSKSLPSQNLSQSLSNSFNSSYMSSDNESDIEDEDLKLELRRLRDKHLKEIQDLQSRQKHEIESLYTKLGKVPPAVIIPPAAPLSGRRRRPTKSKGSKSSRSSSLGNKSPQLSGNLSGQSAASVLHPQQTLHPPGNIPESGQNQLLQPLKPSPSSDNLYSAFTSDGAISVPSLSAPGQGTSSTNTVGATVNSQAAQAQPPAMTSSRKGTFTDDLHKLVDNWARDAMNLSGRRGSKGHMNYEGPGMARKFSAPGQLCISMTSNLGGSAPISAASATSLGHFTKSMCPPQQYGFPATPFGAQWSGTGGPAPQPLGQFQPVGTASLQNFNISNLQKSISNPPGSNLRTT
Chain of Phosphatidylinositol 4-kinase alpha (Homo sapiens) (P42356 whole entry, looked up): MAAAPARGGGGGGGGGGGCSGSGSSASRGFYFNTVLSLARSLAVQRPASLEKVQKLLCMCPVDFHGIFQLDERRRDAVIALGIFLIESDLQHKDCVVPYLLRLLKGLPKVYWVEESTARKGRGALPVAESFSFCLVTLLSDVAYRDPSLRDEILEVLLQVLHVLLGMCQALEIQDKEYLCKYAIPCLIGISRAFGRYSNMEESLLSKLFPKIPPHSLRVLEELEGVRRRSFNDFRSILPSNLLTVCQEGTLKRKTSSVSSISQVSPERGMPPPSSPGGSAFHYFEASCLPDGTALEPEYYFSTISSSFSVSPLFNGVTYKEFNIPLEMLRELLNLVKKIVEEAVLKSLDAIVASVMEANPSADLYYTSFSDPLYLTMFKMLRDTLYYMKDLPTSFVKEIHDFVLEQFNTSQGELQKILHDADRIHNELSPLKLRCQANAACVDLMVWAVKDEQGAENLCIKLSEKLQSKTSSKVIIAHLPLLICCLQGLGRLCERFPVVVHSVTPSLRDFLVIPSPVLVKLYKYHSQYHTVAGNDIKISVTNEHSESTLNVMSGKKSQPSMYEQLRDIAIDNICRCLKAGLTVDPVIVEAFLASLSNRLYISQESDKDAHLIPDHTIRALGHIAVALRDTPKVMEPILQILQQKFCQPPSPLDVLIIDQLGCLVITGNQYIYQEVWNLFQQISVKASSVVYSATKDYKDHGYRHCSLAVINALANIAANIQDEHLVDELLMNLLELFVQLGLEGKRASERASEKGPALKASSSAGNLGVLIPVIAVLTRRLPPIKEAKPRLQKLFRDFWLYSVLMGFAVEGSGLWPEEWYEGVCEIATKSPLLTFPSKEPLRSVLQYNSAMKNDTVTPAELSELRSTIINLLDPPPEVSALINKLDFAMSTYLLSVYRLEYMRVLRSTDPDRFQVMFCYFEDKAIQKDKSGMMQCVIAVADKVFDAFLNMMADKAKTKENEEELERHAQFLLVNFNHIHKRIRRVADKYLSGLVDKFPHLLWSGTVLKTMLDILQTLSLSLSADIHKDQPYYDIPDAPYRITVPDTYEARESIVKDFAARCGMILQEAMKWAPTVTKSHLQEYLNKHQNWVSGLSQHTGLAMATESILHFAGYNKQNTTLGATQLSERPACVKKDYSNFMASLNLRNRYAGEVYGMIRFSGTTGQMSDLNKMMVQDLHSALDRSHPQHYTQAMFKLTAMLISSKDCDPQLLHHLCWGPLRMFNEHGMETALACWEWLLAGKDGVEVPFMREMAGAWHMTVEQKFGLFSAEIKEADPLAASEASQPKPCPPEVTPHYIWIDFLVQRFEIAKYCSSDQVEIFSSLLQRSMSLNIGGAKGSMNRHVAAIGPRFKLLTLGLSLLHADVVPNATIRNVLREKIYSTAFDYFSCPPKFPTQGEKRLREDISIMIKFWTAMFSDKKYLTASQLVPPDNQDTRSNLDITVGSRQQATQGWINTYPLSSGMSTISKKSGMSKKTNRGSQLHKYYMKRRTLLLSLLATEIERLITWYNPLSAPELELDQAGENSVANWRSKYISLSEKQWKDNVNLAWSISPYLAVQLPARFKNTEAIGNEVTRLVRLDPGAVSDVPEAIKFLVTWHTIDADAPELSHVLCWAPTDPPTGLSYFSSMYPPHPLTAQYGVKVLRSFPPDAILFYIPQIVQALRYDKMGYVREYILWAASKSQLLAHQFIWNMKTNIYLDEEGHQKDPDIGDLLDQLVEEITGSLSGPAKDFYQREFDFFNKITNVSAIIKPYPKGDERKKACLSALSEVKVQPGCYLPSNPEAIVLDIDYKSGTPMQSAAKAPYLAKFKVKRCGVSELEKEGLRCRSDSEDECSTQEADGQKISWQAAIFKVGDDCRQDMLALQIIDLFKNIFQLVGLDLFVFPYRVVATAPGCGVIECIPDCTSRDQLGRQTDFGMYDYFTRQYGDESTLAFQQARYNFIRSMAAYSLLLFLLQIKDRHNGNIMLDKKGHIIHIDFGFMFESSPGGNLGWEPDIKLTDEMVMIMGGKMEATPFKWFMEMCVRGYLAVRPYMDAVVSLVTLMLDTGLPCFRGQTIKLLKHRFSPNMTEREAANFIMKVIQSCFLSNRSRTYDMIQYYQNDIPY

| Compound | inhibition [1] [%] | inhibition [2] [%] | inhibition [3] [%] | inhibition [4] [%] | inhibition [5] [%] | IC50 [6] [nM] | inhibition [7] [%] | inhibition [8] [%] | IC50 [9] [nM] | inhibition [10] [%] | inhibition [11] [%] | inhibition [12] [%] | inhibition [13] [%] | inhibition [14] [%] | inhibition [15] [%] | inhibition [16] [%] | inhibition [17] [%] |
| --- | --- | --- | --- | --- | --- | --- | --- | --- | --- | --- | --- | --- | --- | --- | --- | --- | --- |
| Nc1ncc(-c2cccc([N+](=O)[O-])c2F)cc1-c1ccc2c(c1)CCNC2=O | 0 | > 100 | 0 | 0 | 0 | < 40 | 0 | 0 | > 900 | > 90 | 0 | 0 | 0 | 0 | 0 | > 100 | 0 |
| Nc1ncc(-c2ccc(NS(=O)(=O)C3CC3)cc2F)cc1-c1ccc2c(c1)CCNC2=O | 0 | 0 | 0 | 0 | 0 | < 40 | 0 | 0 | 40 | > 90 | 0 | 0 | 0 | 0 | 0 | 0 | 0 |
| CN(C1CC1)S(=O)(=O)c1ccc(-c2cnc(N)c(-c3ccc4c(c3)CCNC4=O)c2)c(F)c1 | 0 | 0 | 0 | 0 | 0 | < 40 | 0 | 0 | 40 | > 90 | 0 | 0 | 0 | 0 | 0 | 0 | 0 |
| Nc1ncc(-c2cccc3ncsc23)cc1-c1ccc2c(c1)CCNC2=O | 0 | 0 | 0 | 0 | 0 | < 40 | 0 | 0 | > 900 | > 90 | 0 | 0 | 0 | 0 | 0 | 0 | 0 |
| COc1cc(NS(=O)(=O)C2CC2)ccc1-c1cnc(N)c(-c2ccc3c(c2)CCNC3=O)c1 | 0 | 0 | 0 | 0 | 0 | < 40 | 0 | 0 | 200 | > 90 | 0 | 0 | > 90 | 0 | 0 | 0 | 0 |
| Nc1ncc(-c2ccc(NS(=O)(=O)C3CC3)cc2OC2CCCCC2)cc1-c1ccc2c(c1)CCNC2=O | 0 | 0 | 0 | 0 | 0 | < 40 | 0 | 0 | > 900 | 50 | 0 | 0 | 0 | 0 | 0 | 0 | 0 |
